Results from ChEMBL document CHEMBL5647694, “Novel orally bioavailable EZH1/2 dual inhibitors with greater antitumor efficacy than an EZH2 selective inhibitor” (Cancer Sci, 2017).

What was measured:
[1] = molecular target: ALK tyrosine kinase receptor (Homo sapiens) (UniProt Q9UM73); assay: Inhibition of N-terminal GST-fused wild type human ALK cytoplasmic domain (1058 to 1620 residues ) expressed in baculovirus-infecetd Sf21 cells using Srctide as substrate at 1 uM in presence of ATP by Mobility shift assay
[2] = molecular target: Ephrin type-B receptor 1 (Homo sapiens) (UniProt P54762); assay: Inhibition of N-terminal GST-fused human EPHB1 cytoplasmic domain (578 to 984 residues) expressed in baculovirus-infected Sf21 cells using Blk/Lyntide as substrate at 1 uM in presence of ATP by Mobility shift assay
[3] = molecular target: Tyrosine-protein kinase JAK1 (Homo sapiens) (UniProt P23458); assay: Inhibition of N-terminal GST-fused human JAK1 catalytic domain (850 to 1154 residues) expressed in baculovirus-infected Sf21 cells using JAK1 substrate peptide at 1 uM in presence of ATP by Mobility shift assay
[4] = molecular target: Tyrosine-protein kinase Lyn (Homo sapiens) (UniProt P07948); assay: Inhibition of N-terminal GST-tagged full length human LynB(1 to 491 residues ) expressed in baculovirus-infected Sf21 cells using Srctide as substrate at 1 uM in presence of ATP by Mobility shift assay
[5] = molecular target: Calcium/calmodulin-dependent protein kinase type 1D (Homo sapiens) (UniProt Q8IU85); assay: Inhibition of N-terminal GST-tagged full length human CAMK1d (1 to 357 residues) expressed in baculovirus-infected Sf21 cells using Synapsin peptide as substrate at 1 uM in presence of ATP by Mobility shift assay
[6] = molecular target: Calcium/calmodulin-dependent protein kinase type II subunit beta (Homo sapiens) (UniProt Q13554); assay: Inhibition of N-terminal GST-tagged full length human CAMK2b (1 to 503 residues) expressed in baculovirus-infected Sf21 cells using GS peptide as substrate at 1 uM in presence of ATP by Mobility shift assay
[7] = molecular target: CDK2/Cyclin A2 (Homo sapiens) (UniProt P24941+P20248); assay: Inhibition of N-terminal GST-tagged full length human CDK2 (1 to 298 residues)/GST-tagged human CyclinA2 (1 to 432 residues) expressed in baculovirus-infected Sf21 cells using Modified Histone H1 as substrate at 1 uM in presence of ATP by Mobility shift assay
[8] = molecular target: Dual specificity protein kinase CLK3 (Homo sapiens) (UniProt P49761); assay: Inhibition of N-terminal GST-fused full length human CLK3 (1 to 490 residues) expressed in baculovirus expression system using DYRKtide-F as substrate at 1 uM in presence of ATP by Mobility shift assay
[9] = molecular target: Mitogen-activated protein kinase 1 (Homo sapiens) (UniProt P28482); assay: Inhibition of N-terminal GST-fused full length human ERK2 (1 to 360 residues) expressed in Escherichia coli expression system using Modified Erktide as substrate at 1 uM in presence of ATP by Mobility shift assay
[10] = molecular target: Glycogen synthase kinase-3 beta (Homo sapiens) (UniProt P49841); assay: Inhibition of N-terminal GST-fused full length human GSK3-beta (1 to 420 residues) expressed in baculovirus expression system using CREBtide-p as substrate at 1 uM in presence of ATP by Mobility shift assay
[11] = molecular target: Serine/threonine-protein kinase haspin (Homo sapiens) (UniProt Q8TF76); assay: Inhibition of N-terminal GST-fused full length human Haspin (1 to 798 residues) expressed in baculovirus expression system using Histone H3 peptide as substrate at 1 uM in presence of ATP by Mobility shift assay
[12] = Inhibition of N-terminal GST-fused full length human MGC42105 (1 to 436 residues) expressed in baculovirus expression system using CHKtide as substrate at 1 uM in presence of ATP by Mobility shift assay; conditions: condition cancer
[13] = molecular target: Mitogen-activated protein kinase 11 (Homo sapiens) (UniProt Q15759); assay: Inhibition of N-terminal GST-fused full length human p38beta (1 to 364 residues) expressed in Escherichia coli expression system using Modified Erktide as substrate at 1 uM in presence of ATP by Mobility shift assay
[14] = molecular target: Mitogen-activated protein kinase 12 (Homo sapiens) (UniProt P53778); assay: Inhibition of N-terminal GST-fused full length human p38gamma (1 to 367 residues) expressed in Escherichia coli expression system using Modified Erktide as substrate at 1 uM in presence of ATP by Mobility shift assay
[15] = molecular target: PAS domain-containing serine/threonine-protein kinase (Homo sapiens) (UniProt Q96RG2); assay: Inhibition of N-terminal GST-fused human PASK catalytic domain (949 to 1323 residues) expressed in baculovirus expressing system using GS peptide as substrate at 1 uM in presence of ATP by Mobility shift assay
[16] = molecular target: cGMP-dependent protein kinase 1 (Homo sapiens) (UniProt Q13976); assay: Inhibition of N-terminal GST-fused human full length […] (1 to 686 residues) expressed in baculovirus expression system using Kemptide as substrate at 1 uM in presence of ATP by Mobility shift assay
[17] = molecular target: Phosphorylase b kinase gamma catalytic chain, skeletal muscle/heart isoform (Homo sapiens) (UniProt Q16816); assay: Inhibition of N-terminal GST-fused full length human PHKG1 (1 to 387 residues) expressed in baculovirus expression system using GS peptide as substrate at 1 uM in presence of ATP by Mobility shift assay
[18] = molecular target: Protein kinase C beta type (Homo sapiens) (UniProt P05771); assay: Inhibition of N-terminal GST-fused human full length PKC-beta2 (1 to 673 residues ) expressed in baculovirus expression system using PKC peptide as substrate at 1 uM in presence of ATP by Mobility shift assay
[19] = molecular target: Interferon-induced, double-stranded RNA-activated protein kinase (Homo sapiens) (UniProt P19525); assay: Inhibition of N-terminal GST-fused human PKR catalytic domain (252 to 551 residues) expressed in baculovirus expression system using SRPKtide as substrate at 1 uM in presence of ATP by IMAP
[20] = molecular target: Serine/threonine-protein kinase PLK3 (Homo sapiens) (UniProt Q9H4B4); assay: Inhibition of N-terminal GST-fused human PLK3 catalytic domain (58 to 340 residues) expressed in baculovirus expression system using CDC25ctide as substrate at 1 uM in presence of ATP by Mobility shift assay
[21] = molecular target: Ribosomal protein S6 kinase alpha-1 (Homo sapiens) (UniProt Q15418); assay: Inhibition of N-terminal GST-fused human full length RSK1 (1 to 735 residues) expressed in baculovirus expression system using S6K peptide(N-FL) as substrate at 1 uM in presence of ATP by Mobility shift assay
[22] = molecular target: Ribosomal protein S6 kinase alpha-6 (Homo sapiens) (UniProt Q9UK32); assay: Inhibition of N-terminal GST-fused human full length RSK4 (1 to 745 residues) expressed in baculovirus expression system using S6K peptide(N-FL) as substrate at 1 uM in presence of ATP by Mobility shift assay

Protein kinase C beta type (Homo sapiens), sequence (P05771 2-671 limits assumed): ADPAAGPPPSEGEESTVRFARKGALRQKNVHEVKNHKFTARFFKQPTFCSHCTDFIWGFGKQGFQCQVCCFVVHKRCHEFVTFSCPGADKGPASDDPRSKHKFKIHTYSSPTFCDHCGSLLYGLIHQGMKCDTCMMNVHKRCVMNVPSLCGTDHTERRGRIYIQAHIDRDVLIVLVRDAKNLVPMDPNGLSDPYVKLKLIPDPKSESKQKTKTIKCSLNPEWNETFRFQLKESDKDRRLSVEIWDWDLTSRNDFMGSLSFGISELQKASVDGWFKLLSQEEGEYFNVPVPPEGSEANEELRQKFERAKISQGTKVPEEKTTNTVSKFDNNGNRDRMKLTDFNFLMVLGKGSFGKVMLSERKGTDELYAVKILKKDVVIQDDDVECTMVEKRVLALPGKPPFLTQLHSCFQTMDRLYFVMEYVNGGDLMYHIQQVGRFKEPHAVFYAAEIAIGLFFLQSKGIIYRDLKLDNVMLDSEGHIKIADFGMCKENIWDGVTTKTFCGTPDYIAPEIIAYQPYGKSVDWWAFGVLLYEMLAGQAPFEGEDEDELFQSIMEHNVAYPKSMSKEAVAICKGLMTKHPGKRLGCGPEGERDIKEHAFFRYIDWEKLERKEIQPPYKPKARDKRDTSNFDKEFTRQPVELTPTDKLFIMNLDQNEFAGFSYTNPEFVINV
Glycogen synthase kinase-3 beta (Homo sapiens), sequence (P49841 whole entry, looked up, the tested form may be a part): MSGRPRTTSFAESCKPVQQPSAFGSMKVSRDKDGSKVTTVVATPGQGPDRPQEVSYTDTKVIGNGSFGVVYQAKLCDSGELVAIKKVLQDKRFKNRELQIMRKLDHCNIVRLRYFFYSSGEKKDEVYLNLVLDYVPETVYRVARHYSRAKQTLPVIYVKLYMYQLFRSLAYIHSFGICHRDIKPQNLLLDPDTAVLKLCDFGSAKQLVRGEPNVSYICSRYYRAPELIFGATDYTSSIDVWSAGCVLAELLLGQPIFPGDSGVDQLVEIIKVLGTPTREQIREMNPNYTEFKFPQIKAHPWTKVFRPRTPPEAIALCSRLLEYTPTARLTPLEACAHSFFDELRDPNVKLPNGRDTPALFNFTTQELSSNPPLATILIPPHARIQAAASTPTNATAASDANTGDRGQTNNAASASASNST
Ephrin type-B receptor 1 (Homo sapiens), sequence (P54762 whole entry, the tested form may be a part): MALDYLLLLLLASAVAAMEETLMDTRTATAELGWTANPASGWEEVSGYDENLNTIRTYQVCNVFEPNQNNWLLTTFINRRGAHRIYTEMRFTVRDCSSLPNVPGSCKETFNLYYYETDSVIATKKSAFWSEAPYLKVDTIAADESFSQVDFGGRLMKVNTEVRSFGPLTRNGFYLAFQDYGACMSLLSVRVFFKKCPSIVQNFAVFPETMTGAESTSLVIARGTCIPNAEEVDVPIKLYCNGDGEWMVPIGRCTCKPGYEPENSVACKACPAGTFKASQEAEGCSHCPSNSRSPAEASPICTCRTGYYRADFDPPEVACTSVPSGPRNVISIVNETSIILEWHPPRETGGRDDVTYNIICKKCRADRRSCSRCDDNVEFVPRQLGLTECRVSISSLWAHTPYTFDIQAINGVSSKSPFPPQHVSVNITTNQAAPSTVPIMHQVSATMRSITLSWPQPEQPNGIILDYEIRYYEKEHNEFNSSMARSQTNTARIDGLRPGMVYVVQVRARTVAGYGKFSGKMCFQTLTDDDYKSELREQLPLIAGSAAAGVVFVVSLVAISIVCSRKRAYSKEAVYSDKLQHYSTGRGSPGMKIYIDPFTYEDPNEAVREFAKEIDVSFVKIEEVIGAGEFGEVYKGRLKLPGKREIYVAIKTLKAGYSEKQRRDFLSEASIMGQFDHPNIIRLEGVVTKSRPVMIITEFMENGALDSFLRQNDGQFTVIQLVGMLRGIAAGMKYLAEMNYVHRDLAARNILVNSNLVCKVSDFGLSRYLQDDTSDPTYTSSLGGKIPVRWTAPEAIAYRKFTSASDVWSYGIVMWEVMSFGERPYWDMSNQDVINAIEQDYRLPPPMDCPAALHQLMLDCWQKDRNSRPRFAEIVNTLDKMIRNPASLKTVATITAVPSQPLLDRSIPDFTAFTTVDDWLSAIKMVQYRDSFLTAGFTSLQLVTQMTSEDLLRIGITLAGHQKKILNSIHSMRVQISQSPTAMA
Ribosomal protein S6 kinase alpha-1 (Homo sapiens), sequence (Q15418 whole entry, the tested form may be a part): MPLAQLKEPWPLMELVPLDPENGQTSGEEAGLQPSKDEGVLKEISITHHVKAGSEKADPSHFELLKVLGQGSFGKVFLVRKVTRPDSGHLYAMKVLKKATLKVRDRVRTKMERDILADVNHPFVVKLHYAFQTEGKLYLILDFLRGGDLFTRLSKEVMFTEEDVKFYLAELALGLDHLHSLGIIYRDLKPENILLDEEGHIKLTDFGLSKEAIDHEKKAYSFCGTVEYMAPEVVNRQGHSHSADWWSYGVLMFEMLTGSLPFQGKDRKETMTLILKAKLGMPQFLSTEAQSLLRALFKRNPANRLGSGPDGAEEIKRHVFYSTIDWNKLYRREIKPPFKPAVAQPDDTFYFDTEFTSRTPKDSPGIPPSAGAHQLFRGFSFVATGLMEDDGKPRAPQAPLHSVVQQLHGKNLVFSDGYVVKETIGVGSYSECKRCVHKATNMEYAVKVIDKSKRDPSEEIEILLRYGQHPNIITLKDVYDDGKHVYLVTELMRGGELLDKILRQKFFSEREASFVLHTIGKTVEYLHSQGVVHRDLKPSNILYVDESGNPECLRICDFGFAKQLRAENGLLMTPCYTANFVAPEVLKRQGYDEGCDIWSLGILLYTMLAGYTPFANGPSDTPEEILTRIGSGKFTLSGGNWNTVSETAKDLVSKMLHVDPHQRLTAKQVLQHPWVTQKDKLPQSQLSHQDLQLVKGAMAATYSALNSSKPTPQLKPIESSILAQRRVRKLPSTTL
ALK tyrosine kinase receptor (Homo sapiens), sequence (Q9UM73 19-1620 limits assumed): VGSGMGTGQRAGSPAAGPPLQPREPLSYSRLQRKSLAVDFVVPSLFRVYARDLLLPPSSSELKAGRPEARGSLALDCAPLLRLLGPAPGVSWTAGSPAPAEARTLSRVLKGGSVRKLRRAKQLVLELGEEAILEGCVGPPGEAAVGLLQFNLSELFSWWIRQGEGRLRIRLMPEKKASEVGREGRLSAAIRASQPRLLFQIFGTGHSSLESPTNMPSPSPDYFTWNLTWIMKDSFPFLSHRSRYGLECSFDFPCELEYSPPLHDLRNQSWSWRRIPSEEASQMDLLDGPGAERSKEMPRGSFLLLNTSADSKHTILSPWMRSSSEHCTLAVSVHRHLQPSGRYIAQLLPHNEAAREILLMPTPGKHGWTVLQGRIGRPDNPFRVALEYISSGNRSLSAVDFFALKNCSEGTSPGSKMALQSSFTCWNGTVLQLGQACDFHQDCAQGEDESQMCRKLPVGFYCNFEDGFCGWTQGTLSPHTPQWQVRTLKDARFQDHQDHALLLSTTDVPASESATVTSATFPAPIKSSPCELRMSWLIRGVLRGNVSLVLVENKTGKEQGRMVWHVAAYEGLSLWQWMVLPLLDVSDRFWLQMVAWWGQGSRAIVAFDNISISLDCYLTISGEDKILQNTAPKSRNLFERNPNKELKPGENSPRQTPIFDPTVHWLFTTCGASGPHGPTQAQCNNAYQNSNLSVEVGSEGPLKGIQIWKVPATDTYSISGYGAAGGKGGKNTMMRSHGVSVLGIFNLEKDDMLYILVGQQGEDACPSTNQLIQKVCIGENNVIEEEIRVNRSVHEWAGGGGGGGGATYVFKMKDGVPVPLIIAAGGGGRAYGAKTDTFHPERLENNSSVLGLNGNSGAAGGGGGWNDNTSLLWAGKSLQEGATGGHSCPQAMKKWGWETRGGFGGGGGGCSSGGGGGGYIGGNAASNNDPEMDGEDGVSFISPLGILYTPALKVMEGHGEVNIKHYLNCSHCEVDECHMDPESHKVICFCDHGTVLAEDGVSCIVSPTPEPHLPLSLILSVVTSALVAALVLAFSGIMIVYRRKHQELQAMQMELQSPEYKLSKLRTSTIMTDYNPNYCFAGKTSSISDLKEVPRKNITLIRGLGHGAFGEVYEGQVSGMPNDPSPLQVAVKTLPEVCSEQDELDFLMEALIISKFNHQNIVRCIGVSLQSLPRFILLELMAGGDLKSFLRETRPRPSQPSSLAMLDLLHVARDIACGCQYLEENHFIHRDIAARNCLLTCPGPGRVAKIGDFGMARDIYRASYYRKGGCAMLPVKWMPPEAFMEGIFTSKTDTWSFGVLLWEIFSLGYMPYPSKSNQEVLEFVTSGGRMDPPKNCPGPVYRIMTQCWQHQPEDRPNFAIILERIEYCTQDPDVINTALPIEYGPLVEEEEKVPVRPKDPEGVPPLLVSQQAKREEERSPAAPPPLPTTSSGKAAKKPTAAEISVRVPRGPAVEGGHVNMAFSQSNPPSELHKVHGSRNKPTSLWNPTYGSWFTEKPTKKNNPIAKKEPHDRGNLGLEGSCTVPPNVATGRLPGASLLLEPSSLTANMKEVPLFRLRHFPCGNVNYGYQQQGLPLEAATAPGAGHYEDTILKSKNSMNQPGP
Interferon-induced, double-stranded RNA-activated protein kinase (Homo sapiens), sequence (P19525 whole entry, the tested form may be a part): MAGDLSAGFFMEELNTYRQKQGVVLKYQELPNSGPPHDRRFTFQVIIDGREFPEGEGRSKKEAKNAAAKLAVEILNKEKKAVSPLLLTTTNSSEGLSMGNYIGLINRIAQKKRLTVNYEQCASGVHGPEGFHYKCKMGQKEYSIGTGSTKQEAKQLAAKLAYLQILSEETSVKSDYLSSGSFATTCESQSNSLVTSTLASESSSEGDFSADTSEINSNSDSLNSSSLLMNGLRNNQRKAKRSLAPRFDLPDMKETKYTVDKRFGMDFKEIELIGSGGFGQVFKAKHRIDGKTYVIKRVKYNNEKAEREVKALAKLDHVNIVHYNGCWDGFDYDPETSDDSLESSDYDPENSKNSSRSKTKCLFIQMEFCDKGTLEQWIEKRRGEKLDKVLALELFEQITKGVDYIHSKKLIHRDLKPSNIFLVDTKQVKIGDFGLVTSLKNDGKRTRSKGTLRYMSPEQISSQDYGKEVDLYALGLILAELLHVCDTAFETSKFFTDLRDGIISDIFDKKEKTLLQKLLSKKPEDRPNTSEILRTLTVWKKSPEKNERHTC

| SMILES | inhibition [1] [%] | inhibition [2] [%] | inhibition [3] [%] | inhibition [4] [%] | inhibition [5] [%] | inhibition [6] [%] | inhibition [7] [%] | inhibition [8] [%] | inhibition [9] [%] | inhibition [10] [%] | inhibition [11] [%] | inhibition at 1 µM [12] [%] | inhibition [13] [%] | inhibition [14] [%] | inhibition [15] [%] | inhibition [16] [%] | inhibition [17] [%] | inhibition [18] [%] | inhibition [19] [%] | inhibition [20] [%] | further results |
| --- | --- | --- | --- | --- | --- | --- | --- | --- | --- | --- | --- | --- | --- | --- | --- | --- | --- | --- | --- | --- | --- |
| Cc1cc(C)c(CNC(=O)c2cc(Br)c3c(c2C)O[C@@](C)([C@H]2CC[C@H](N(C)C)CC2)O3)c(=O)[nH]1 | -2.8 | -2.7 | -3.3 | -3.2 | -3.6 | -0.3 | -0.3 | -2 | -6.6 | -3.3 | 6.5 | -1.7 | -3.1 | -1.6 | -3.7 | -4.3 | -1.5 | 3.2 | -3 | -1.3 | inhibition [21]: -6.4%; inhibition [22]: -2.5% |
| Cc1cc(C)c(CNC(=O)c2cc(Cl)c3c(c2C)O[C@@](C)([C@H]2CC[C@H](N(C)C)CC2)O3)c(=O)[nH]1 [VALEMETOSTAT] | -9.1 | -3.4 | -3.3 | -4.3 | -3.5 | -1.4 | 3 | 1.6 | -8.8 | -7.1 | 12.2 | -0.3 | -5.6 | -3 | -5.8 | -2.1 | -3.7 | -1.1 | 2.9 | -7.8 | inhibition [21]: -0.2%; inhibition [22]: -0.5% |
